Data published in the Kinase Knowledgebase extract (Sharma et al. 2016).

What was measured:
EGFR (human) [1] = target: EGFR (human) (UniProt P00533); details: mda-mb-361
EGFR (human) [2] = target: EGFR (human) (UniProt P00533); details: mda-mb-231
EGFR (human) [3] = target: EGFR (human) (UniProt P00533); details: mda-mb-231; remark: listed apart in the source
EGFR (human) [4] = target: EGFR (human) (UniProt P00533); details: mda-mb-231; remark: listed apart in the source

EGFR (human), sequence (P00533 whole entry, looked up): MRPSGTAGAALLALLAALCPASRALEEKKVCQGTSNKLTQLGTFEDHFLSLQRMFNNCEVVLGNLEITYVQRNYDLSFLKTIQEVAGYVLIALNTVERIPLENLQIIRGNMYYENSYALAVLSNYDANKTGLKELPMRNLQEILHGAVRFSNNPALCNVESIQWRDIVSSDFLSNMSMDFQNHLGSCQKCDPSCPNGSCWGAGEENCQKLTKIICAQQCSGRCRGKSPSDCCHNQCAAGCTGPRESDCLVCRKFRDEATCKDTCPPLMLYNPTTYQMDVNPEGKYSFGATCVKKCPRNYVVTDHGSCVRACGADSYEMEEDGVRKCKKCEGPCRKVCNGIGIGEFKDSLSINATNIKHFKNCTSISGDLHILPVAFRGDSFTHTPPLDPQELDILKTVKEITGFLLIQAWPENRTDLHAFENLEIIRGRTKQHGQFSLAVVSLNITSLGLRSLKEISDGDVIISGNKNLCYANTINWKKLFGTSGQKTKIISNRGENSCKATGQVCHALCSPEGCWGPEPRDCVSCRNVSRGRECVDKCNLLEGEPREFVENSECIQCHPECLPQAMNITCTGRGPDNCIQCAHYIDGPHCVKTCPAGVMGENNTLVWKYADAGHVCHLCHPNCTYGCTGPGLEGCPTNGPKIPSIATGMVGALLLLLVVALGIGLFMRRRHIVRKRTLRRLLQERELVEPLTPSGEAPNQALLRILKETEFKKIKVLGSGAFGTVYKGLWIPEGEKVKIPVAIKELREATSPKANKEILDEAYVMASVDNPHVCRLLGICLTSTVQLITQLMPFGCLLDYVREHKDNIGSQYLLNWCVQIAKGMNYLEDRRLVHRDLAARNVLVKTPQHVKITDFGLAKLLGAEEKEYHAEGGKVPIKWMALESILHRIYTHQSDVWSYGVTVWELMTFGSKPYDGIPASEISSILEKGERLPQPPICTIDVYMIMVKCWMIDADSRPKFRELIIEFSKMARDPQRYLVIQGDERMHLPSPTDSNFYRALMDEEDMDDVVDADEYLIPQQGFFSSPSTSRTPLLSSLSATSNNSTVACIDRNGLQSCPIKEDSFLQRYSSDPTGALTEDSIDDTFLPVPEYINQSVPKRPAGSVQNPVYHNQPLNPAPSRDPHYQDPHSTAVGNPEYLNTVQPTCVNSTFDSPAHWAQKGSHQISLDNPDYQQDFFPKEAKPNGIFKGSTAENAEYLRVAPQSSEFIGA

| Compound | IC50 (EGFR (human) [1]) [µM] | IC50 (EGFR (human) [2]) [µM] | IC50 (EGFR (human) [3]) [µM] | IC50 (EGFR (human) [4]) [µM] |
| --- | --- | --- | --- | --- |
| C/C(O)=C(\C#N)C(=O)Nc1ccc(Cl)cc1 | > 300 | > 100 | > 300 | – |
| C/C(O)=C(\C#N)C(=O)Nc1ccc(F)cc1 | > 300 | > 100 | > 300 | – |
| C/C(O)=C(\C#N)C(=O)Nc1cccc(Cl)c1 | > 300 | > 100 | > 300 | – |
| C/C(O)=C(\C#N)C(=O)Nc1cc(Br)ccc1Br | > 300 | > 100 | > 300 | – |
| C/C(O)=C(\C#N)C(=O)Nc1ccccc1 | > 300 | > 100 | > 300 | – |
| C/C(O)=C(\C#N)C(=O)Nc1ccccc1Br | > 300 | > 100 | > 300 | – |
| C/C(O)=C(\C#N)C(=O)Nc1ccccc1F | > 300 | 74.5 | > 300 | – |
| C/C(O)=C(\C#N)C(=O)Nc1cccc(Br)c1 | > 300 | > 100 | > 300 | – |
| C/C(O)=C(\C#N)C(=O)Nc1ccccc1C(F)(F)F | > 300 | > 100 | > 300 | – |

Next, values leading:

| IC50 (EGFR (human) [1]) [µM] | IC50 (EGFR (human) [2]) [µM] | IC50 (EGFR (human) [3]) [µM] | IC50 (EGFR (human) [4]) [µM] | Compound |
| --- | --- | --- | --- | --- |
| > 300 | > 100 | > 300 | – | C/C(O)=C(\C#N)C(=O)Nc1cccc(F)c1 |
| > 300 | > 100 | > 300 | – | C/C(O)=C(\C#N)C(=O)Nc1ccc(Br)cc1 |
| > 300 | > 100 | > 300 | – | C/C(O)=C(\C#N)C(=O)Nc1ccccc1Cl |
| 190 | 5.4 | 199 | 97 | C/C(O)=C(\C#N)C(=O)Nc1ccc(C(F)(F)F)cc1 |
| > 300 | > 100 | > 300 | – | C/C(O)=C(\C#N)C(=O)Nc1cccc(C(F)(F)F)c1 |
| 26.3 | – | 53.4 | 28.4 | C/C(O)=C(\C#N)C(=O)Nc1ccc(OC(F)(F)F)cc1 |
